Like-named read-outs stand apart in the source and are kept apart here.
Assays:
[1] = target: T1, TcSpdSyn (Trypanosoma cruzi, UniProt Q4DA73); test: biochemical; type: biochemical; conditions: for Hill (4PL curve fitting parameter) / Max (4PL curve fitting parameter, inhibition%) / min (4PL curve fitting parameter, inhibition%) / LoggedX50 (4PL curve fitting parameter): Supplementary Table 3; for LoggedX50 (4PL curve fitting parameter): Log10 of X50
Experimental: To identify TcSpdSyn inhibitors, we performed an in vitro enzyme inhibition assay on 176 compounds sourced from the chemical compound library at Astellas Pharma.
The TcSpdSyn inhibition assay was performed essentially as previously[27] described. Briefly, the assay was an enzyme-coupled assay incorporating spermidine/spermine N(1)-acetyltransferase 1 (SSAT1). 7-Diethylamino-3-(4-maleimidylphenyl)-4-methylcoumarin (CPM) (cat. D-346, Thermo Fischer Scientific) was used to measure the coenzyme A produced by the SSAT1 reaction. […] The fluorescence signal was then detected in a plate reader (Paradigm, Molecular Devices Inc.) with excitation at 405 nm and emission at 530 nm. Each IC50 value was measured using eight different concentrations in quadruplicate. […] Compounds 1, 3, and 4 were used in their salt forms, whereas compound 2 was used in its free form. The corresponding salts were oxalic acid for compound 1 and HCl for compounds 3 and 4. These compounds were dissolved in dimethyl sulfoxide (DMSO), and the maximum final DMSO concentration in the assays was 1.3%.
Supplementary Figure 3. The fitting curve for IC50 calculation of the compounds on Table 1 (Compounds 1, 2, 3, 4, and 4MCHA correspond to (a), (b), (c), (d) and (e), respectively). The vertical line and horizontal axis's represent inhibition% for TcSpdSyn and compound concentration. The closed circles show the inhibition% measured at each dose. The error bars indicate the standard error of the inhibition% measured at each dose. For curve fitting, the following four paramter logoistic (4PL) model1 is used. The paramter […]

[2] = target: T1, TcSpdSyn; parameters: method as in PMID 26327378; conditions: cited from earlier work

T1 sequence (Q4DA73 entry or part of it): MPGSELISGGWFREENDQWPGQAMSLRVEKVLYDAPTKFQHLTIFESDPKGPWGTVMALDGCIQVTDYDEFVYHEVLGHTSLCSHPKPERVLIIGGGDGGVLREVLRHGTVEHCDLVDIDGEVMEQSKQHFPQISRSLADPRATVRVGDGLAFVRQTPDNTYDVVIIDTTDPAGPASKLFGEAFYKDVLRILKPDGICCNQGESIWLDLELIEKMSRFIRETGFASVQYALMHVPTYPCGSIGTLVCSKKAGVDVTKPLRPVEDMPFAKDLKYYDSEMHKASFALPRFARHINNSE

| Compound | IC50 [1] [µM] | Hill (4PL curve fitting parameter) [1] | Max (4PL curve fitting parameter, inhibition%) [1] | min (4PL curve fitting parameter, inhibition%) [1] | LoggedX50 (4PL curve fitting parameter) [1] | IC50 ([1]; read-out: IC50 for TcSpdSyn) [µM] | IC50 [2] [nM] |
| --- | --- | --- | --- | --- | --- | --- | --- |
| NCCc1ccccc1F [Compound 1, 2-(2-Fluorophenyl)ethanamine] | 124 | 0.90 | 100.00 | 0.00 | 2.09 |  |  |
| O=c1nc(Nc2nc(O)nc(O)n2)sc2ccccc12 [Compound 2, 2-[(4,6-dihydroxy-1,3,5-triazin-2-yl)amino]-4H-1,3-benzothiazin-4-one] |  | 1.27 | 100.00 | 0.00 | 1.46 | 28 |  |
| CCOc1ccc2c(c1)c(CCN)cn2CC [Compound 3, 2-(5-Ethoxy-1-ethyl-1H-indol-3-yl)ethanamine] | 113 | 1.44 | 100.00 | 0.00 | 2.05 |  |  |
| NCCc1ccc(O)c(O)c1 [Compound 4, 4-(2-Aminoethyl)-1,2-benzenediol] |  | 1.03 | 100.00 | 0.00 | 1.82 | 66 |  |
| C[C@H]1CC[C@H](N)CC1 [Compound 4MCHA, trans-4-methylcyclohexylamine, reference compound] |  | 1.01 | 100.00 | 0.00 | 0.29 | 1.9 | 1700 |
